Test results: the supplement of paper PMC10307832

Experiments:
Experiment in all cases: relative viability (nuclei count vs DMSO), 5 days (fraction); higher = more cells survive
XMD14-99 + Alpelisib = compound: CN1CCN(CC1)C2=CC(=C(C=C2)NC3=NC(=C(S3)C(=O)C4=C(C=CC=C4Cl)Cl)N)OC [XMD14-99] + Cc1nc(NC(=O)N2CCC[C@H]2C(N)=O)sc1-c1ccnc(C(C)(C)C(F)(F)F)c1 [Alpelisib] (partner 2 µM)
Outline: (§1)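 A single step with final 0.05% Triton X-100, 1% formaldehyde and 1 ug/ml Hoechst fixed the cells and stained nuclei 5 days after treatment. Lung cancer cell lines in 1536-well plates had been treated by pin tool the day after seeding with one drug alone or a fixed anchor-drug dose plus five library-drug doses (not always all listed) in √10 steps, and nuclei were counted on 4× images. Relative viability is the ratio of nuclei in treated wells to nuclei in vehicle wells, taken as the median of duplicate plates.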

AZD1208 + Linsitinib = compound: N[C@@H]1CCCN(c2c(/C=C3\SC(=O)NC3=O)cccc2-c2ccccc2)C1 [AZD1208] + C[C@]1(O)C[C@@H](c2nc(-c3ccc4ccc(-c5ccccc5)nc4c3)c3c(N)nccn32)C1 [Linsitinib] (partner 1 µM)
Outline: as §1

XMD14-99 + Olaparib = compound: CN1CCN(CC1)C2=CC(=C(C=C2)NC3=NC(=C(S3)C(=O)C4=C(C=CC=C4Cl)Cl)N)OC [XMD14-99] + O=C(c1cc(Cc2n[nH]c(=O)c3ccccc23)ccc1F)N1CCN(C(=O)C2CC2)CC1 [Olaparib] (partner 8 µM)
Outline: as §1

AZD1208 + Bortezomib = compound: N[C@@H]1CCCN(c2c(/C=C3\SC(=O)NC3=O)cccc2-c2ccccc2)C1 [AZD1208] + CC(C)C[C@H](NC(=O)[C@H](Cc1ccccc1)NC(=O)c1cnccn1)B(O)O [Bortezomib] (partner 0.002 µM)
Outline: as §1

Cell Line: 201T
- relative viability (XMD14-99 + Alpelisib; first compound 0.08 µM): 0.998
- relative viability (XMD14-99 + Alpelisib; first compound 0.8 µM): 1
- relative viability (XMD14-99 + Alpelisib; first compound 2.53 µM): 0.841
- relative viability (XMD14-99 + Alpelisib; first compound 8 µM): 0.952
- relative viability (AZD1208 + Linsitinib; first compound 0.08 µM): 1.02
- relative viability (AZD1208 + Linsitinib; first compound 0.253 µM): 1.05
- relative viability (AZD1208 + Linsitinib; first compound 0.8 µM): 0.989
- relative viability (AZD1208 + Linsitinib; first compound 2.53 µM): 1.01
- relative viability (AZD1208 + Linsitinib; first compound 8 µM): 0.979
- relative viability (XMD14-99 + Olaparib; first compound 0.08 µM): 0.861
- relative viability (XMD14-99 + Olaparib; first compound 0.8 µM): 0.799
- relative viability (XMD14-99 + Olaparib; first compound 2.53 µM): 0.776
- relative viability (XMD14-99 + Olaparib; first compound 8 µM): 0.695
- relative viability (AZD1208 + Bortezomib; first compound 0.08 µM): 1.13
- relative viability (AZD1208 + Bortezomib; first compound 0.253 µM): 1.14
- relative viability (AZD1208 + Bortezomib; first compound 0.8 µM): 1.13
- relative viability (AZD1208 + Bortezomib; first compound 2.53 µM): 1.16
- relative viability (AZD1208 + Bortezomib; first compound 8 µM): 1.13

Cell Line: NCI-H2228
- relative viability (XMD14-99 + Alpelisib; first compound 0.08 µM): 0.927
- relative viability (XMD14-99 + Alpelisib; first compound 0.8 µM): 0.528
- relative viability (XMD14-99 + Alpelisib; first compound 2.53 µM): 0.492
- relative viability (XMD14-99 + Alpelisib; first compound 8 µM): 0.188
- relative viability (AZD1208 + Linsitinib; first compound 0.08 µM): 0.493
- relative viability (AZD1208 + Linsitinib; first compound 0.253 µM): 0.596
- relative viability (AZD1208 + Linsitinib; first compound 0.8 µM): 0.546
- relative viability (AZD1208 + Linsitinib; first compound 8 µM): 0.356
- relative viability (XMD14-99 + Olaparib; first compound 0.08 µM): 0.776
- relative viability (XMD14-99 + Olaparib; first compound 0.8 µM): 0.603
- relative viability (XMD14-99 + Olaparib; first compound 2.53 µM): 0.706
- relative viability (XMD14-99 + Olaparib; first compound 8 µM): 0.273
- relative viability (AZD1208 + Bortezomib; first compound 0.08 µM): 1.15
- relative viability (AZD1208 + Bortezomib; first compound 0.253 µM): 1.15
- relative viability (AZD1208 + Bortezomib; first compound 0.8 µM): 0.865
- relative viability (AZD1208 + Bortezomib; first compound 8 µM): 0.704

Cell Line: HOP-62
- relative viability (XMD14-99 + Alpelisib; first compound 0.08 µM): 0.883
- relative viability (XMD14-99 + Alpelisib; first compound 0.8 µM): 1
- relative viability (XMD14-99 + Alpelisib; first compound 2.53 µM): 1.04
- relative viability (XMD14-99 + Alpelisib; first compound 8 µM): 0.818
- relative viability (AZD1208 + Linsitinib; first compound 0.08 µM): 1.06
- relative viability (AZD1208 + Linsitinib; first compound 0.253 µM): 0.843
- relative viability (AZD1208 + Linsitinib; first compound 0.8 µM): 1.05
- relative viability (AZD1208 + Linsitinib; first compound 2.53 µM): 1.11
- relative viability (AZD1208 + Linsitinib; first compound 8 µM): 0.623
- relative viability (XMD14-99 + Olaparib; first compound 0.08 µM): 0.536
- relative viability (XMD14-99 + Olaparib; first compound 0.8 µM): 0.634
- relative viability (XMD14-99 + Olaparib; first compound 2.53 µM): 0.501
- relative viability (XMD14-99 + Olaparib; first compound 8 µM): 0.312
- relative viability (AZD1208 + Bortezomib; first compound 0.08 µM): 0.827
- relative viability (AZD1208 + Bortezomib; first compound 0.253 µM): 1.06
- relative viability (AZD1208 + Bortezomib; first compound 0.8 µM): 0.724
- relative viability (AZD1208 + Bortezomib; first compound 2.53 µM): 0.598
- relative viability (AZD1208 + Bortezomib; first compound 8 µM): 0.507

Cell Line: CAL-12T
- relative viability (XMD14-99 + Alpelisib; first compound 0.08 µM): 1.49
- relative viability (XMD14-99 + Alpelisib; first compound 0.8 µM): 1.13
- relative viability (XMD14-99 + Alpelisib; first compound 2.53 µM): 1.15
- relative viability (XMD14-99 + Alpelisib; first compound 8 µM): 1.03
- relative viability (AZD1208 + Linsitinib; first compound 0.08 µM): 0.721
- relative viability (AZD1208 + Linsitinib; first compound 0.253 µM): 1.13
- relative viability (AZD1208 + Linsitinib; first compound 0.8 µM): 0.761
- relative viability (AZD1208 + Linsitinib; first compound 2.53 µM): 0.86
- relative viability (AZD1208 + Linsitinib; first compound 8 µM): 0.909
- relative viability (XMD14-99 + Olaparib; first compound 0.08 µM): 0.674
- relative viability (XMD14-99 + Olaparib; first compound 0.8 µM): 0.785
- relative viability (XMD14-99 + Olaparib; first compound 2.53 µM): 0.671
- relative viability (XMD14-99 + Olaparib; first compound 8 µM): 0.607
- relative viability (AZD1208 + Bortezomib; first compound 0.08 µM): 1.32
- relative viability (AZD1208 + Bortezomib; first compound 0.253 µM): 1.03
- relative viability (AZD1208 + Bortezomib; first compound 0.8 µM): 0.887
- relative viability (AZD1208 + Bortezomib; first compound 2.53 µM): 1.03
- relative viability (AZD1208 + Bortezomib; first compound 8 µM): 1.18

Cell Line: NCI-H596
- relative viability (XMD14-99 + Alpelisib; first compound 0.08 µM): 0.503
- relative viability (XMD14-99 + Alpelisib; first compound 0.8 µM): 0.587
- relative viability (XMD14-99 + Alpelisib; first compound 2.53 µM): 0.477
- relative viability (XMD14-99 + Alpelisib; first compound 8 µM): 0.568
- relative viability (AZD1208 + Linsitinib; first compound 0.08 µM): 0.97
- relative viability (AZD1208 + Linsitinib; first compound 0.253 µM): 1.02
- relative viability (AZD1208 + Linsitinib; first compound 0.8 µM): 0.975
- relative viability (AZD1208 + Linsitinib; first compound 2.53 µM): 1.01
- relative viability (AZD1208 + Linsitinib; first compound 8 µM): 0.714
- relative viability (XMD14-99 + Olaparib; first compound 0.08 µM): 0.815
- relative viability (XMD14-99 + Olaparib; first compound 0.8 µM): 0.725
- relative viability (XMD14-99 + Olaparib; first compound 2.53 µM): 0.646
- relative viability (XMD14-99 + Olaparib; first compound 8 µM): 0.665
- relative viability (AZD1208 + Bortezomib; first compound 0.08 µM): 0.578
- relative viability (AZD1208 + Bortezomib; first compound 0.253 µM): 0.857
- relative viability (AZD1208 + Bortezomib; first compound 0.8 µM): 0.98
- relative viability (AZD1208 + Bortezomib; first compound 2.53 µM): 1.01
- relative viability (AZD1208 + Bortezomib; first compound 8 µM): 0.878

Cell Line: NCI-H1755
- relative viability (XMD14-99 + Alpelisib; first compound 0.08 µM): 0.945
- relative viability (XMD14-99 + Alpelisib; first compound 0.8 µM): 0.908
- relative viability (XMD14-99 + Alpelisib; first compound 2.53 µM): 0.886
- relative viability (XMD14-99 + Alpelisib; first compound 8 µM): 0.648
- relative viability (AZD1208 + Linsitinib; first compound 0.08 µM): 0.993
- relative viability (AZD1208 + Linsitinib; first compound 0.253 µM): 0.995
- relative viability (AZD1208 + Linsitinib; first compound 0.8 µM): 0.913
- relative viability (AZD1208 + Linsitinib; first compound 2.53 µM): 0.998
- relative viability (AZD1208 + Linsitinib; first compound 8 µM): 0.95
- relative viability (XMD14-99 + Olaparib; first compound 0.08 µM): 0.888
- relative viability (XMD14-99 + Olaparib; first compound 0.8 µM): 0.815
- relative viability (XMD14-99 + Olaparib; first compound 2.53 µM): 0.835
- relative viability (XMD14-99 + Olaparib; first compound 8 µM): 0.622
- relative viability (AZD1208 + Bortezomib; first compound 0.08 µM): 0.97
- relative viability (AZD1208 + Bortezomib; first compound 0.253 µM): 1.06
- relative viability (AZD1208 + Bortezomib; first compound 0.8 µM): 0.96
- relative viability (AZD1208 + Bortezomib; first compound 2.53 µM): 1.02
- relative viability (AZD1208 + Bortezomib; first compound 8 µM): 0.904

Cell Line: NCI-H2085
- relative viability (XMD14-99 + Alpelisib; first compound 0.08 µM): 0.92
- relative viability (XMD14-99 + Alpelisib; first compound 0.8 µM): 0.866
- relative viability (XMD14-99 + Alpelisib; first compound 2.53 µM): 0.889
- relative viability (XMD14-99 + Alpelisib; first compound 8 µM): 0.728
- relative viability (AZD1208 + Linsitinib; first compound 0.08 µM): 0.913
- relative viability (AZD1208 + Linsitinib; first compound 0.253 µM): 1.04
- relative viability (AZD1208 + Linsitinib; first compound 0.8 µM): 0.892
- relative viability (AZD1208 + Linsitinib; first compound 2.53 µM): 0.939
- relative viability (AZD1208 + Linsitinib; first compound 8 µM): 0.946
- relative viability (XMD14-99 + Olaparib; first compound 0.08 µM): 0.773
- relative viability (XMD14-99 + Olaparib; first compound 0.8 µM): 0.694
- relative viability (XMD14-99 + Olaparib; first compound 2.53 µM): 0.718
- relative viability (XMD14-99 + Olaparib; first compound 8 µM): 0.605
- relative viability (AZD1208 + Bortezomib; first compound 0.08 µM): 1.07
- relative viability (AZD1208 + Bortezomib; first compound 0.253 µM): 1.2
- relative viability (AZD1208 + Bortezomib; first compound 0.8 µM): 0.938
- relative viability (AZD1208 + Bortezomib; first compound 2.53 µM): 1.14
- relative viability (AZD1208 + Bortezomib; first compound 8 µM): 1.05

Cell Line: NCI-H2023
- relative viability (XMD14-99 + Alpelisib; first compound 0.08 µM): 0.614
- relative viability (XMD14-99 + Alpelisib; first compound 0.8 µM): 0.527
- relative viability (XMD14-99 + Alpelisib; first compound 2.53 µM): 0.646
- relative viability (XMD14-99 + Alpelisib; first compound 8 µM): 0.534
- relative viability (AZD1208 + Linsitinib; first compound 0.08 µM): 0.651
- relative viability (AZD1208 + Linsitinib; first compound 0.253 µM): 0.56
- relative viability (AZD1208 + Linsitinib; first compound 0.8 µM): 0.576
- relative viability (AZD1208 + Linsitinib; first compound 2.53 µM): 0.633
- relative viability (AZD1208 + Linsitinib; first compound 8 µM): 0.568
- relative viability (XMD14-99 + Olaparib; first compound 0.08 µM): 0.442
- relative viability (XMD14-99 + Olaparib; first compound 2.53 µM): 0.311
- relative viability (XMD14-99 + Olaparib; first compound 8 µM): 0.122
- relative viability (AZD1208 + Bortezomib; first compound 0.08 µM): 0.888
- relative viability (AZD1208 + Bortezomib; first compound 0.253 µM): 1.02
- relative viability (AZD1208 + Bortezomib; first compound 0.8 µM): 0.983
- relative viability (AZD1208 + Bortezomib; first compound 2.53 µM): 0.695
- relative viability (AZD1208 + Bortezomib; first compound 8 µM): 0.849
